Results reported in US5912351A, “Anhydrous 1,4-Dihydropyridines and salts thereof” (Recordati, S.A. Chemical and Pharmaceutical Company, priority 1995, dated 1999).

System: EAhy-926
Test: Cell-mediated oxidation of LDL (MDA), EAhy-926 cells
Format: cell-based
Conditions: 10 to 100 μM, 22 hours, FIG. 6
Description: The antioxidant capacity was evaluated by incubating ethylene-diaminetetraacetic acid free-LDL under sterile conditions with 5 μM Cu++ (100 μg Apo B/ml) in the presence of J774A.1 cells. Oxidation was stopped after 22 hours incubation by addition of butylated hydroxytoluene to the medium (final concentration 40 μM) dissolved in ethanol. To the incubated sample (0.250 ml), was added trichloroacetic acid (0.750 ml, 0.20% w/v) followed by of thiobarbituric acid (0.750 ml, 0.67% w/v). The samples were heated at 100° C. for 20 min, followed by cooling and centrifugation. Malonic dialdehyde equivalents were calculated using 1,1,3,3-tetramethoxypropane as the standard.
Following the procedure in Example 9A, the effects of lercanidipine on cell-mediated oxidation were studied with a different cell line which shares many of the properties of endothelial cells (EAhy-926). (The cells were provided by: Prof. A. Catapano, Pharmacology Dept., Universita Statale--Milano.) (These or other endothelial cells can be obtained as described by C-J. S. Edgall et al., Proc. Nat. AcAd. Sci., 80: 3734-3737, (1983); and Gimbrone, M., Prog. Hemostasis Thromb., 3: 1-28, (1976)). The cells were treated with lercanidipine at a concentration of from about 10 to about 100 μM.

COC(=O)C1=C(C)NC(C)=C(C(=O)OC(C)(C)CN(C)CCC(c2ccccc2)c2ccccc2)C1c1cccc([N+](=O)[O-])c1 (racemic) [LE, methyl 1,1,N-trimethyl-N-(3,3-diphenylpropyl)-2-aminoethyl 1,4-dihydro-2,6-dimethyl-4-(3-nitrophenyl)-pyridine-3,5-dicarboxylate]
LDL oxidation (nanomoles of MDA produced): reduced the oxidation of LDL
